Data taken from EP0466251A1, “Elfamycin-resistant mutants” (priority 1990, dated 1992).
Converted amounts (≈) assume the structure as drawn.

Legend:
Assay type in all cases: cell-based
[1] = tested on: S. ramocissimus CBS 190.69; assay: growth of plated mycelium, minimal inhibitory concentration; conditions: mycelium pregrown in YMG medium without mocimycin; 1 ml of a 16 hrs culture plated
From the text: (§1) Essentially identical results were obtained when for each of the strains spores were substituted by mycelium, pregrown in YMG medium without mocimycin.

S. ramocissimus R1V [2] = assay: as above; conditions: mycelium pregrown in YMG medium without mocimycin; 1 ml of a 16 hrs culture plated
From the text: as §1

[3] = tested on: S. ramocissimus CBS 190.69; assay: regeneration of protoplasts on regeneration medium; conditions: for Regeneration efficiency of protoplasts: regeneration medium
Description: (§2) Spores were isolated essentially as described by D. Hopwood et al. (cited above), and used to inoculate YMG medium (yeast extract 4 g/l, malt extract 10 g/l, glucose 4 g/l) containing 0.5% glycine. Protoplasts were obtained by lysozyme treatment of this culture, transformed as described by D. Hopwood et al. (cited above) with plasmid pMTST1VΔS and pMTST1TΔS. Subsequently the transformed protoplasts were spread on regeneration medium, and incubated at 30°C. Regeneration medium was prepared by mixing equal volumes of sporulation medium and stabilizer medium. Stabilizer medium consisted of NaNO₃ 3 g/l, K₂HPO₄.3H₂O 0.085 g/l, K₂SO₄ 0.25 g/l, FeSO₄.7H₂O 0.01 g/l, trace element solution 0.1 ml, Tris 3.03 g/l, NaCl 2.92 g/l, sucrose 103 g/l, glucose 10 g/l, MgCl₂.6H₂O 5 g/l, CaCl₂.2H₂O 1.5 g/l, and agar 20 g/l, adjusted to pH 7.2 with 4N HCl. […] After 24 hrs the regeneration plates were overlaid with 3 ml soft agar containing 20 µg/ml thiostrepton (D. Hopwood et al., cited above) and incubated at 30°C for 5 days.
(§3) Another test was carried out using protoplasts of strains S. ramocissimus CBS 190.69 and S. ramocissimus R1V, prepared as described in Example 7. […] Thus protoplasts were plated on regeneration medium (Example 7) containing 0 to 0.1 g/l mocimycin. Under these conditions protoplasts of S. ramocissimu CBS 190.69 were able to regenerate only at mocimycin concentrations below 0.02 g/l; regeneration of S. ramocissimus R1V protoplasts in the presence of up to 0.1 g/l mocimycin occurred with the same efficiency as without mocimycin (Table 2).

S. ramocissimus R1V [4] = assay: regeneration of protoplasts on regeneration medium; conditions: for Regeneration efficiency of protoplasts: regeneration medium
Description: as §2, §3

[5] = regeneration medium containing 0 to 0.1 g/l mocimycin

Structure (SMILES): C/C=C\C=C\[C@@H]1O[C@](O)([C@H](CC)C(=O)NC/C=C/C=C(\C)[C@@H](OC)[C@H](C)[C@@H]2O[C@H](/C=C/C=C/C=C(\C)C(=O)c3c(O)cc[nH]c3=O)[C@H](O)[C@@H]2O)[C@H](O)[C@H](O)C1(C)C [mocimycin, Mocimycin]
- minimal inhibitory concentration [1]: 150 µg/mL (≈ 188 µM)
- minimal inhibitory concentration (S. ramocissimus R1V [2]): 750 µg/mL (≈ 941 µM)
- mocimycin concentrations at which protoplasts were able to regenerate [3, 5]: below 0.02 g/l
- Regeneration efficiency of protoplasts ([3]; mocimycin 0.01 g/l): 40%
- Regeneration efficiency of protoplasts ([3]; mocimycin 0.02 g/l): 0%
- Regeneration efficiency of protoplasts ([3]; mocimycin 0.04 g/l): 0%
- Regeneration efficiency of protoplasts ([3]; mocimycin 0.07 g/l): 0%
- Regeneration efficiency of protoplasts ([3]; mocimycin 0.10 g/l): 0%
- mocimycin concentration up to which regeneration occurred with the same efficiency as without mocimycin (S. ramocissimus R1V [4]; [5]): up to 0.1 g/l
- Regeneration efficiency of protoplasts (S. ramocissimus R1V [4]; mocimycin 0.01 g/l): 100%
- Regeneration efficiency of protoplasts (S. ramocissimus R1V [4]; mocimycin 0.02 g/l): 100%
- Regeneration efficiency of protoplasts (S. ramocissimus R1V [4]; mocimycin 0.04 g/l): 100%
- Regeneration efficiency of protoplasts (S. ramocissimus R1V [4]; mocimycin 0.07 g/l): 90%
- Regeneration efficiency of protoplasts (S. ramocissimus R1V [4]; mocimycin 0.10 g/l): 80%
